Molecular target: T1, T1R1 and T1R2 with G protein α-subunits (α15 and α16/Z chimeric protein) (Mus musculus, UniProt Q925I4+Q99PG6, E350G/G527D/P352R/R175Q)
T1 construct: expressed in transfected cells; host or cells: 293 cells, RCB 1637 (human embryonic kidney)
T1 sequence (Q99PG6 20-842 L120P/N244D/D281A/N309Y/P311T/S314P/H418Y): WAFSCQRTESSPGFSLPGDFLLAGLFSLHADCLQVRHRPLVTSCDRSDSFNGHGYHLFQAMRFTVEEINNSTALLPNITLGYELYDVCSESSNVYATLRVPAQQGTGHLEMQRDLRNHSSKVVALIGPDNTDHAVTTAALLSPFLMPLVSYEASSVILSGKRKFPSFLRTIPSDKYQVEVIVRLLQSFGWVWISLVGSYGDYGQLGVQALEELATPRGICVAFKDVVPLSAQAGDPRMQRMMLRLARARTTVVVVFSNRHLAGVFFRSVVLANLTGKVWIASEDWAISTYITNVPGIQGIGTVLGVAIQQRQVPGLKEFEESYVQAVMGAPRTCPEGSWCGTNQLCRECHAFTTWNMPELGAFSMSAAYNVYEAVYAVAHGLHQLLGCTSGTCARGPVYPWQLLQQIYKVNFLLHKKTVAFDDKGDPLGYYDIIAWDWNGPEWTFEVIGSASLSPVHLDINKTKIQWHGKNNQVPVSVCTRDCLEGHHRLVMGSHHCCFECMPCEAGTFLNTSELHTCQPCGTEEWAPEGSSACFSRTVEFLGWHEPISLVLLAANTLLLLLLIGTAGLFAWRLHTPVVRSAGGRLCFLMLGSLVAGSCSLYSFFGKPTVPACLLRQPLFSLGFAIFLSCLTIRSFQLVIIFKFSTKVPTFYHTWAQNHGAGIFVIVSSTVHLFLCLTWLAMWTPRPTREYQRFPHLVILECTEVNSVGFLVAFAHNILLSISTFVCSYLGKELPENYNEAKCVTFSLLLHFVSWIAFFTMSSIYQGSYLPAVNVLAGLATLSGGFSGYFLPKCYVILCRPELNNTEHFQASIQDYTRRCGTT
T1 sequence (Q925I4 20-843 R175Q/E350G/P352R/G527D): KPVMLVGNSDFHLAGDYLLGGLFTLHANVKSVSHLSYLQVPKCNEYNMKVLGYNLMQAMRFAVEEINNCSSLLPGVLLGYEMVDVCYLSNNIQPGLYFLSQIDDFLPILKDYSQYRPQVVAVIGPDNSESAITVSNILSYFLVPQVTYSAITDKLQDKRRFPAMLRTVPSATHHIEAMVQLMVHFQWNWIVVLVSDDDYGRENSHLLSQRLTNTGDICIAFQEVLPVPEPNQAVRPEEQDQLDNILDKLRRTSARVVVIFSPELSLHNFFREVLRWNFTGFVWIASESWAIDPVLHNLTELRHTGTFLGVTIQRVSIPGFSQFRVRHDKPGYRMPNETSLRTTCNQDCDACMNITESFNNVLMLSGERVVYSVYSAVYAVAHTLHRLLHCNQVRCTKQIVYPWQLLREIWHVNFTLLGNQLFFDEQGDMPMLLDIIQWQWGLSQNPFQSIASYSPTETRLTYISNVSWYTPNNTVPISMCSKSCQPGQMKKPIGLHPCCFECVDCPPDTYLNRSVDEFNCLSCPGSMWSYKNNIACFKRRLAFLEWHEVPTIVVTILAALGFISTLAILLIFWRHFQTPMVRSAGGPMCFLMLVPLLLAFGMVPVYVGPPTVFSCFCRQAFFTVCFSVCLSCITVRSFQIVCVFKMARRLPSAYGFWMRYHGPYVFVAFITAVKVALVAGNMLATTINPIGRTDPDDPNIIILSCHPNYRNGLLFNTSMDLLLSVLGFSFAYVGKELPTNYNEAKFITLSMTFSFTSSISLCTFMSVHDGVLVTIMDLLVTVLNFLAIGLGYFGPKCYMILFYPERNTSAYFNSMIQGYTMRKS
Assay: Intracellular calcium ion assay, 293 cells coexpressing G protein α-subunits, T1R1 and T1R2
Format: cell-based
Settings: 293 cells: T1R1 + T1R2 + G protein α-subunits; 0.67 ml of 1 M saccharide solution added to 2 ml cell suspension; FLUO-4 AM
Protocol: The coexpression vector for the G protein α-subunit α15 and the G protein α16/Z chimeric protein (hereinafter designated as “G protein α-subunits”) obtained in Example 1-3 was gene transferred to 293 cells, RCB 1637, a human embryonic kidney cell line, available from the Riken Bioresource Center, Ibaraki, Japan, by conventional lipofection. The gene transferred cells were suspended in Dulbecco's Modified Eagle's Medium (D-MEM) supplemented with 1 mg/L of “PUROMYCIN”, a trade mane of puromycin commercialized by Edge Biosystems, MD, USA, and 10% (v/v) of fetal calf serum to give a cell density of 2×10^6 cells/ml and cultured in a plastic petri dish for cell culture. […]
The captioned reactivity test was conducted according to a conventional intracellular calcium ion assay: 293 Cells prepared in Example 3, capable of coexpressing the G protein α-subunits and the sweet taste receptor(s), were cultured in a plastic petri dish for cell culture until reaching its confluent phase. […] Two milliliters of the resultant cell suspension was injected into a glass cuvette, commercialized by Hitachi, Ltd., Tokyo, Japan, and analyzed on “HITACHI 650-40”, a fluorescence spectrophotometer commercialized by Hitachi, Ltd., Tokyo, Japan. […]

Influx of calcium ion	SMILES
Negative	OC[C@H]1O[C@@](CO)(O[C@H]2O[C@H](CO)[C@@H](O)[C@H](O)[C@H]2O)[C@@H](O)[C@@H]1O [Sucrose, reference compound]
Negative	OC[C@H]1O[C@H](O[C@H]2O[C@H](CO)[C@@H](O)[C@H](O)[C@H]2O)[C@H](O)[C@@H](O)[C@@H]1O [Trehalose]

Reference: patent US20050048508A1, “Trehalose receptor and method for detecting trehalose with the same” (KABUSHIKI KAISHA HAYASHIBARA SEIBUTSU KAGAKU KENKYUJO, priority 2002, published 2005)
